Test results as given in patent US12521379B2, “Use of FK506 for the treatment of pulmonary arterial hypertension” (The Board of Trustees of the Leland Stanford Junior …, priority 2011, dated 2026).

Assays:
[1] = test system: monocrotaline induced pulmonary hypertension; test: Reversal of monocrotaline induced pulmonary hypertension in rats; format: in vivo, rat
Procedure: (§1) 3600 FDA approved drugs and bioactive compounds were screened for their ability to activate BMP signaling, using a C2C12 mouse myoblast cell line stably transfected with a reporter plasmid expressing a BMP response element (BRE) from the Id1 promoter fused to the luciferase-gene (BRE-luc). Whether the best qHTS-BMPRII activator can induce Smad phosphorylation (phospho), Id1 expression and promote PAEC survival and tube formation was determined using BMP4 as a positive control. Whether the qHTS-BMPRII-activator would prevent PAH in mice with a conditional deletion in BMPRII in ECs (BMPRII-SCL-CreERT) that develop exaggerated PAH after 3 weeks of hypoxia (10% O2) was determined. In order to assess whether the BMPRII activator could also reverse PAH, we used 2 models of severe experimental PH in rats: 1. Monocrotaline induced pulmonary hypertension with development of severe medial hypertrophy of the pulmonary arteries 3 weeks after injection. 2. SUGEN (VEGF-Receptor blocker) and 3-week chronic hypoxia induced pulmonary hypertension with development of neointima formation in pulmonary arteries 8 weeks after initiation of the stimulus. Both groups were treated with FK-506 for 3 weeks via sc osmotic pump (0.05 mg/kg/d) after PAH and remodeling of the pulmonary arteries was established. The serum level of FK-506 in mice and rats was aimed to be 0.2 ng/ml.

[2] = Prevention of PAH in mice with conditional deletion of BMPRII in ECs, 3 weeks of hypoxia; format: in vivo, mouse; details: mouse, serum, 0.05 mg/kg/day; mice, 0.05 mg/kg/d; read-out: serum levels
Procedure: as §1

[3] = test system: mice with a conditional deletion in BMPRII in ECs (BMPRII-SCL-CreERT); test: as above; format: in vivo, mouse; details: 0.05 mg/kg/d, 3-week preventive treatment, 3 weeks of hypoxia, n=5
Procedure: as §1

[4] = test system: SUGEN and chronic hypoxia induced pulmonary hypertension; test: Reversal of SUGEN and 3-week chronic hypoxia induced pulmonary hypertension in rats; format: in vivo, rat; details: n=4
Procedure: as §1

[5] = test system: WBC count, nuclear NFATc2; test: Immunosuppressive effect at low dose: WBC count and nuclear NFATc2; format: in vivo; details: low dose of 0.2 ng/ml
PAECs [6] = test: PAEC survival; format: cell-based; details: n=5, p<0.001
Procedure: as §1

[7] = test system: PAECs harvested from IPAH patients; test: p-Smad 1/5/8 and Id1 expression in PAECs harvested from IPAH patients; format: cell-based, human; details: PAECs from six different IPAH patients at the time of transplant
Procedure: as §1

PAECs [8] = test: Tube formation in an angiogenesis assay; format: cell-based; details: n=3, p<0.01
Procedure: as §1

[9] = 3-week sc treatment at established PAH

Row | Molecule | survival ([1]; after 3-week treatment started 3 weeks after monocrotaline 60 mg s.c.) [%] | RVSP ([1]; surviving rats after 3-week treatment, n=14) [mmHg] | concentration at 3 weeks [2] [ng/mL] | RV systolic pressure [3] [mmHg] | RVH (right ventricular hypertrophy) [3] | RVH [4, 9] | RVSP [4, 9] [mmHg] | Neointima formation in small pulmonary arteries per total vessel number ([4]; alveolar wall and alveolar duct vessels) [%] | immunosuppressive effect of decreased nuclear NFATc2 [5] | total or differential WBC count [5] | survival of PAECs (PAECs [6]) | Id1 expression [7] | p-Smad 1/5/8 [7] | tube formation (PAECs [8])
1 | C=CC[C@@H]1/C=C(\C)C[C@H](C)C[C@H](OC)[C@H]2O[C@@](O)(C(=O)C(=O)N3CCCC[C@H]3C(=O)O[C@H](/C(C)=C/[C@@H]3CC[C@@H](O)[C@H](OC)C3)[C@H](C)[C@@H](O)CC1=O)[C@H](C)C[C@@H]2OC [FK-506] | 57 | 39.5±4.7 | 0.2 | 21±2.3 | 26.9±4.5 | 0.34±0.02 | 39.5±0.6 | 16.2±5.8 | nor was an immunosuppressive effect of decreased nuclear NFATc2 measured | no effect | – | – | – | –
2 | BMP4: bone morphogenetic protein 4, used as a positive control (protein, UniProt P12644 293-408, looked up) Bone morphogenetic protein 4: SPKHHSQRARKKNKNCRRHSLYVDFSDVGWNDWIVAPPGYQAFYCHGDCPFPLADHLNSTNHAIVQTLVNSVNSSIPKACCVPTELSAISMLYLDEYDKVVLKNYQEMVVEGCGCR | – | – | – | – | – | – | – | – | – | – | improved survival | 3/6 patients that did not respond | 3/6 patients that did not respond | induced tube formation
